Tests used:
α4β1 integrin = molecular target: T1, α4β1 integrin (Homo sapiens, UniProt P05556+P13612); test: α4β1 Integrin Adhesion Assay: Jurkat Cell Adhesion to Human Plasma Fibronectin; assay type: cell-based; settings: Jurkat cells
T1 construct: Jurkat™ cells (maintained in log phase growth) were labeled with Calcein AM; endogenous in cells; host or cells: Jurkat cells
Procedure: 96 well plates (Costar 3590 EIA plates) were coated with human fibronectin (Gibco/BRL, cat #33016–023) at a concentration of 10 μg/mL overnight at 4° C. The plates were then blocked with a solution of bovine serum albumin (BSA; 0.3%) in saline. Jurkat™ cells (maintained in log phase growth) were labeled with Calcein AM according to the manufacturer's instructions, and suspended at a concentration of 2×10^6 cells/mL in Hepes/Saline/BSA. The cells were then exposed to test and control compounds for 30 minutes at room temperature before transfer to individual wells of the fibronectin coated plate. Adhesion was allowed to occur for 35 minutes at 37° C. The wells were then washed by gentle aspiration and pipetting with fresh saline. Fluorescence associated with the remaining adherent cells was quantified using a fluorescence plate reader at EX 485/EM 530.
Cell cultures were prepared by first splitting the stationary phase Jurkat™ cells at 1:10 on day one, and 1:2 on day two to perform assay on day 3. The cells split 1:10 on day one were split 1:4 on day 3 for a day 4 assay.
The assay plates were prepared by first making a working solution of Gibco/BRL Human Fibronectin (cat #33016-023) in PBS++, at 10 μg/mL. A Costar 3590 EIA plate was then coated with 50 μL/well for 2 hours at room temperature (thought it can also be left overnight at 4° C.). Finally the plate was asperated and blocked with Hepes/Saline Buffer, 100 μL/well, for 1 hour at RT followed by washing 3× with 150 μL of PBS++.
Compound dilutions were accomplished by preparing 1:3 serial dilutions of compounds as follows. For each plate (4 compounds/plate) 600 μL were added to 4 Bio-Rad Titertubes in a Titertube rack. […] Using Falcon Flexiplates, 100 μL of Hepes/Saline buffer or human serum were added to rows B through G. A multi-channel pipetter set to 180 μL was used to with four tips spaced evenly the pipetter. Each set of four tubes was mixed 5 times and 180 μL of 2× compound was transferred to the first column of each compound dilution in Row B, leaving Row A empty. 180 μL were added to the other wells in Row A. Serial dilutions were performed down the plate by transferring 50 μL to the next dilution and mixing 5 times, changing tips each time after mixing.
A 20 μg/mL solution in Hepes/Saline buffer or human serum, of 21/6 antibody was the positive control and was set aside in a reagent trough to add to cell suspension plate.
The cell staining was accomplished by first harvesting the log-phase Jurkat™ cells by centrifugation in 50 mL tubes (1100 rpm for 5 minutes). The cells were resuspended in 50 mL PBS++, spun, and resuspend in 20 mL PBS++. The cells were stained by adding 20 μL of Calcein AM for 30 minutes RT. The volume was brought to 50 mL with Hepes/Saline buffer and the cells were counted, spun, and resuspend to 2×10^6 cells/mL in Hepes/Saline buffer or human serum.
The compounds were incubated using the following procedure. In a new flexiplate, 65 μL of stained cells were added to Rows B through H. Then 65 μL of 2× compounds were added to the appropriate rows following the plate setup and mixed three times. 65 μL of 2×-21/6 antibody were added to Row H and mixed 3×. Finally the plate was incubated at room temperature for 30 minutes.
Fibronectin adhesion was measured using a fluorescent plate reader at EX 485/EM 530 after the following work up procedure. After incubation, the cells were mixed three times and 100 μL were transfered to the Fibronectin coated plates and incubated at 37° C. for about 35 minutes. Each plate was washed, row by row, by gently pipetting 100 μL of RT. PBS++ down the sides of the wells and turning the plate 90 degrees to aspirate. This procedure was repeated for a total of 3 washes. Each well was filled with 100 μL after washing by pipetting down the side of the well.
An IC50 value was calculated for each compound, both in the presence of the human serum and in the absence of human serum.

[1] = Cassette Dosing and Serum Analysis for Determination of Bioavailability; assay type: in vivo, rat; settings: average AUC 0→12 h, male Sprague Dawley rats, single oral cassette dose (6 compounds, total dose 10 mg/kg), plasma
Procedure: The cassette included 5 test articles and a standard compound, for a total dose of 10 mg/kg. Each compound/test article was converted to the sodium salt with equimolar 1 N NaOH and dissolved in water at 2 mg/mL. The cassette was prepared by mixing equal volumes of each of the six solutions. The cassette dosing solution was mixed well and then the pH was adjusted to 7.5–9. The dosing solution was prepared the day before the study and stirred overnight at room temperature.
Male Sprague Dawley (SD) rats from Charles River Laboratories, 6–8 weeks old were used in this screen. Rats were quarantined for at least one day and had continuous access to food and water. On the night before the administration of the cassette, the rats were fasted for approximately 16 h.
Four SD rats were assigned in each cassette. A single dose of the dosing solution was administered orally to each rat. The dosing volume (5 mL/kg) and time were recorded and rats were fed 2 h after dosing.
Blood samples were collected via cardiac puncture at the following time points: 4 h, 8 h and 12 h. Immediately prior to blood collection, rats were anesthetized with CO2 gas within 10–20 seconds. After the 12-h samples were collected, the rats were euthanized via CO2 asphyxiation followed by cervical dislocation.
Blood samples were kept in heparinized microtainer tubes under sub-ambient temperature (4° C.) before they were processed. Blood samples were centrifuged (10000 rpm for 5 minutes) and plasma samples were removed and stored in a −20° C. freezer until analyzed for drug levels. Drug levels in the plasma were analyzed using the following protocol for direct plasma precipitation.
The in vivo plasma samples were prepared in a 1.5 mL 96-well plate, by adding, in order, 100 μL of the test plasma, 150 μL of methanol, followed by vortexing for 10–20 seconds. 150 μL of 0.05 ng/μL of an Internal Standard in acetonitrile were added and vortexed for 30 seconds.
The standard curve samples were prepared in a 1.5 mL 96-well plate, by adding, in order, 100 μL of control mouse plasma, followed by 150 μL of methanol and vortexing for 10–20 seconds. 150 μL of 0.05 ng/μL of an Internal Standard in acetonitrile were added and vortexed for 30 seconds. The samples were spiked with 0–200 ng (10 concentrations) of the compound of interest in 50% methanol to obtain a standard curve range of 0.5 ng/mL–2,000 ng/mL. Again, the sample was vortexed for 30 seconds.
The samples were then spun for 20–30 minutes at 3000 rpm in an Eppendorf microfuge before 80–90% of supernatant was transferred into a clean 96-well plate. The organic solvent was then evaporated until the samples were dry (under N2 at 40° C./30–60 min (Zymark Turbovap)).
The residue was then dissolved in […] mobile phase (50% CH3OH/0.1% TFA). LC/MS/MS was then run using a PE-Sciex API-3000 triple quadurpole mass spectrometer (SN0749707), Perkin-Elmer, Series200auto-sampler, and shimadzu 10A pump. Acquisition was done with PE-Sciex Analyst (v1.1) and data analysis and quantification were accomplished using PE-Sciex Analyst (v1.1). A 5–50 μL sample volume was injected onto a reverse phase ThermoHypersil DASH-18 column (Keystone 2.0×20 mm, 5 μm, PN: 8823025-701) using a mobile phase of 25% CH3OH, 0.1% TFA-100% CH3OH, 0.1% TFA. The run time was about 8 minutes at a flow rate of about 300 μL/minutes.
The Area Under the Curve (AUC) was calculated using the linear trapezoidal rule from t=0 to the last sampling time tx (see Handbook of Basic Pharmacokinetics, Wolfgang A. Ritschel and Gregory L. Kearns, 5th ed, 1999). AUC^0→tx=S((Cn+Cn+1)/2))·(tn+1−tn)[(μg/mL)h]

T1 sequence (P13612 34-1032): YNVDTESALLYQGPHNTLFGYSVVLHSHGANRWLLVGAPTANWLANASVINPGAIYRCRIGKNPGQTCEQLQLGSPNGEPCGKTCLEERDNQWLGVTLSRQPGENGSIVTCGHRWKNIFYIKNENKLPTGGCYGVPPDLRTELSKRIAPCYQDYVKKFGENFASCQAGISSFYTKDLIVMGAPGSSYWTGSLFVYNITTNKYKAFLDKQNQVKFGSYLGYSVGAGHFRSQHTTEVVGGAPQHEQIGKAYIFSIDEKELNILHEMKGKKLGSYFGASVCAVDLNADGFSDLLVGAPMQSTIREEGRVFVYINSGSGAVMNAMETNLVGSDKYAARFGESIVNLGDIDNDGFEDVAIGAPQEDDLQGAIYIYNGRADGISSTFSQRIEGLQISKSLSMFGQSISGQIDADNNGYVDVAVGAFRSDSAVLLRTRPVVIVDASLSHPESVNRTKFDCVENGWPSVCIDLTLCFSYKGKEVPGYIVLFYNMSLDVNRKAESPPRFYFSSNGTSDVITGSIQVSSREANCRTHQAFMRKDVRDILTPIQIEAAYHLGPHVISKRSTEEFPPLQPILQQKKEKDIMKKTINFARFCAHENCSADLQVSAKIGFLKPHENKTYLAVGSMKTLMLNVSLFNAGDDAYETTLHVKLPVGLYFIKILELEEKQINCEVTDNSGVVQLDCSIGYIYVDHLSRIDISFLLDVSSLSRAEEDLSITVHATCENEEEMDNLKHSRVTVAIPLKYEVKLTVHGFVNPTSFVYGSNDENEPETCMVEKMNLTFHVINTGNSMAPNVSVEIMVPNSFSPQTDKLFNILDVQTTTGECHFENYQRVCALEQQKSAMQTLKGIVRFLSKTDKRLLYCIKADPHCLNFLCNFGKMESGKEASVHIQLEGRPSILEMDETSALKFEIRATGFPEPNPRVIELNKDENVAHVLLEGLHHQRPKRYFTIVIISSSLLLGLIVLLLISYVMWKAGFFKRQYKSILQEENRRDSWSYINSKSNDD
T1 sequence (P05556 21-798): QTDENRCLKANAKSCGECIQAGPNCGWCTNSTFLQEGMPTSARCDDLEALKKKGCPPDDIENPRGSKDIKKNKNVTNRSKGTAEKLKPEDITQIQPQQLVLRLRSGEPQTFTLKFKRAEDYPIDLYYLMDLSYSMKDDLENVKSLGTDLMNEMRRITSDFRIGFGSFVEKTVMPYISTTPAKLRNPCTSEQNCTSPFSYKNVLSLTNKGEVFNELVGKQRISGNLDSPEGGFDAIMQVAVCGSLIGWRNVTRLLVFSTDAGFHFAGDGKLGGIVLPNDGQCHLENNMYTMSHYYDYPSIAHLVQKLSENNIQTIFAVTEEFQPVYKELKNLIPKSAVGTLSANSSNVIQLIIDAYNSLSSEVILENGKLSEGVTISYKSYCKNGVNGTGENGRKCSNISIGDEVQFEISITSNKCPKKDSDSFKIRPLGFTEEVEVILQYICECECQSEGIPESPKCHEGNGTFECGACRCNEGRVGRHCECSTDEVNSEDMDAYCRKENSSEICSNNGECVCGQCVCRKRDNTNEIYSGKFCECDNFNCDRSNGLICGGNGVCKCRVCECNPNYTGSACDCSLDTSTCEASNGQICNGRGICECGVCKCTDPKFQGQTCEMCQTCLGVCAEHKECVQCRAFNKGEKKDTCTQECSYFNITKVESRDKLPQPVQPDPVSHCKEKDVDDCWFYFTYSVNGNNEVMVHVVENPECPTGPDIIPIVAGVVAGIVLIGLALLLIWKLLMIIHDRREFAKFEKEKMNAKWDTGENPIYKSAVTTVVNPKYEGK

Row | SMILES | IC50 (α4β1 integrin; containing human serum) [nM] | IC50 (α4β1 integrin; without the human serum) [nM] | AUC [1]
1 | CCN(CC)c1ncc(N(CC)S(=O)(=O)c2ccc(Cl)cc2)c(N[C@@H](Cc2ccc(OC(=O)N3CCCC3)cc2)C(=O)O)n1 [Example 1, N-(2-[N′,N′-diethylamino]-5-[N″-(4-chlorophenylsulfonyl)-N″-ethylamino]pyrimidin-4-yl)-4′-(pyrrolidin-1-ylcarbonyloxy)-L-phenylalanine] | 409 | 17 | 14.798 (μg/mL)h
2 | CCN(CC)c1ncc(N(CC)S(=O)(=O)c2ccc(F)cc2)c(N[C@@H](Cc2ccc(OC(=O)N3CCCC3)cc2)C(=O)O)n1 [Example 2, N-(2-[N′,N′-diethylamino]-5-[N″-(4-fluorophenylsulfonyl)-N″-ethylamino]pyrimidin-4-yl)-4′-(pyrrolidin-1-ylcarbonyloxy)-L-phenylalanine] | 604 | 1.59 | 15.971 (μg/mL)h
3 | CCN(CC)c1ncc(N(C)S(=O)(=O)c2ccc(F)cc2)c(N[C@@H](Cc2ccc(OC(=O)N3CCCC3)cc2)C(=O)O)n1 [Example 3, N-(2-[N′,N′-diethylamino]-5-[N″-(4-fluorophenylsulfonyl)-N″-methylamino]pyrimidin-4-yl)-4′-(pyrrolidin-1-ylcarbonyloxy)-L-phenylalanine] | 1730 | 6.51 | 22.271 (μg/mL)h
4 | CCN(CC)c1ncc(N(C)S(=O)(=O)c2ccc(Cl)cc2)c(N[C@@H](Cc2ccc(OC(=O)N3CCCC3)cc2)C(=O)O)n1 [Example 4, N-(2-[N′,N′-diethylamino]-5-[N″-(4-chlorophenylsulfonyl)-N″-methylamino]pyrimidin-4-yl)-4′-(pyrrolidin-1-ylcarbonyloxy)-L-phenylalanine] | 2280 | 19 | 13.829 (μg/mL)h
5 | CCN(CC)c1ncc(N(C)S(=O)(=O)c2ccc(F)cc2)c(N[C@@H](Cc2ccc(OC(=O)N3CCCCC3)cc2)C(=O)O)n1 [Example 5, N-(2-[N′,N′-diethylamino]-5-[N″-(4-fluorophenylsulfonyl)-N″-methylamino]pyrimidin-4-yl)-4′-(piperidin-1-ylcarbonyloxy)-L-phenylalanine] | 1570 | 6 | 2.1654 (μg/mL)h
6 | CCN(CC)c1ncc(N(CC)S(=O)(=O)c2ccc(F)cc2)c(N[C@@H](Cc2ccc(OC(=O)N3CCCCC3)cc2)C(=O)O)n1 [Example 6, N-(2-[N′,N′-diethylamino]-5-[N″-(4-fluorophenylsulfonyl)-N″-ethylamino]pyrimidin-4-yl)-4′-(piperidin-1-ylcarbonyloxy)-L-phenylalanine] | 702 | 4.67 | 0.5125 (μg/mL)h
7 | CCN(CC)c1ncc(N(C)S(=O)(=O)c2ccc(F)cc2)c(N[C@@H](Cc2ccc(OC(=O)N3CCC3)cc2)C(=O)O)n1 [Example 8, N-(2-[N′,N′-diethylamino]-5-[N″-(4-fluorophenylsulfonyl)-N″-methylamino]pyrimidin-4-yl)-4′-(azetidin-1-ylcarbonyloxy)-L-phenylalanine] | 225 | 1.66 | 2.4082 (μg/mL)h
8 | C#CCN(c1cnc(N(CC)CC)nc1N[C@@H](Cc1ccc(OC(=O)N2CCCC2)cc1)C(=O)O)S(=O)(=O)c1ccc(F)cc1 [Example 15, N-(2-[N′,N′-diethylamino]-5-[N″-(4-fluorophenylsulfonyl)-N″-propargylamino]pyrimidin-4-yl)-4′-(pyrrolidin-1-ylcarbonyloxy)-L-phenylalanine] | – | – | 90.317 (μg/mL)h

Continued, values first:

Row | IC50 (α4β1 integrin; containing human serum) [nM] | IC50 (α4β1 integrin; without the human serum) [nM] | AUC [1] | SMILES
9 | 86.2 | 1.63 | 0.8979 (μg/mL)h | CCN(CC)c1ncc(N(CC)S(=O)(=O)c2ccc(F)cc2)c(N[C@@H](Cc2ccc(OC(=O)N3CCC3)cc2)C(=O)O)n1 [Example 7, N-(2-[N′,N′-diethylamino]-5-[N″-(4-fluorophenylsulfonyl)-N″-ethylamino]pyrimidin-4-yl)-4′-(azetidin-1-ylcarbonyloxy)-L-phenylalanine]
10 | 207 | 3.24 | 2.0774 (μg/mL)h | CCN(CC)c1ncc(N(C)S(=O)(=O)c2ccc(Cl)cc2)c(N[C@@H](Cc2ccc(OC(=O)N3CCC3)cc2)C(=O)O)n1 [Example 9]
11 | 82.9 | 4.06 | 2.1113 (μg/mL)h | CCN(CC)c1ncc(N(CC)S(=O)(=O)c2ccc(Cl)cc2)c(N[C@@H](Cc2ccc(OC(=O)N3CCC3)cc2)C(=O)O)n1 [Example 10, N-(2-[N′,N′-diethylamino]-5-[N″-(4-chlorophenylsulfonyl]-N″-ethylamino]pyrimidin-4-yl)-4′-(azetidin-1-ylcarbonyloxy)-L-phenylalanine]
12 | 6280 | 6.93 | – | C#CCN(c1cnc(N(CC)CC)nc1N[C@@H](Cc1ccc(OC(=O)N2CCCC2)cc1)C(=O)O)S(=O)(=O)c1ccc(Cl)cc1 [Example 19, N-(2-[N′,N′-diethylamino]-5-[N″-(4-chlorophenylsulfonyl)-N″-propargylamino]pyrimidin-4-yl)-4′-(pyrrolidin-1-ylcarbonyloxy)-L-phenylalanine]
